Assay results taken from PMC6661771, “Indole hybridized diazenyl derivatives: synthesis, antimicrobial activity, cytotoxicity evaluation and docking studies” (BMC Chemistry, 2019).
In brackets after ≈: the same amount, converted by molar mass. Where two headings read alike, the source gives them in different places.

Experiments:
[1] = tested on: E. coli; assay: Minimum bactericidal concentration (MBC); assay type: cell-based; settings: for MBC: Escherichia coli
[2] = tested on: K. pneumonia; assay: MIC by tube dilution method; assay type: cell-based; settings: Klebsiella pneumoniae, 24 h, 24 h at 37 °C, read-out: MIC
[3] = tested on: B. subtilis; assay: Minimum bactericidal concentration (MBC); assay type: cell-based; settings: for MBC: Bacillus subtilis
[4] = tested on: S. aureus; assay: MIC by tube dilution method; assay type: cell-based; settings: 24 h at 37 °C
[5] = tested on: S. aureus; assay: Minimum bactericidal concentration (MBC); assay type: cell-based; settings: for MBC: Staphylococcus aureus
[6] = tested on: A. niger; assay: Minimum fungicidal concentration (MFC); assay type: cell-based; settings: for MFC: Aspergillus niger, read-out: MBC/MFC
[7] = tested on: A. niger; assay: MIC by tube dilution method; assay type: cell-based; settings: 7 days at 25 °C
[8] = tested on: A. fumigatus; assay: Minimum fungicidal concentration (MFC); assay type: cell-based; settings: for MFC: Aspergillus fumigatus, read-out: MBC/MFC
[9] = tested on: S. enterica; assay: MIC by tube dilution method; assay type: cell-based; settings: 24 h at 37 °C
[10] = tested on: A. fumigatus; assay: MIC by tube dilution method; assay type: cell-based; settings: 7 days at 25 °C
[11] = tested on: E. coli; assay: MIC by tube dilution method; assay type: cell-based; settings: 24 h at 37 °C
[12] = tested on: S. enterica; assay: Minimum bactericidal concentration (MBC); assay type: cell-based; settings: Salmonella enterica, read-out: MBC/MFC
Description: After MIC assessment, the indole derivatives (DS1–DS21), were additionally evaluated for MBC and MFC values. […] The 10–15 ml of nutrient agar and Sabouraud dextrose agar was added to the petri plates for bacterial and fungal samples respectively with gentle shaking of plates in order to mix the culture throughout the media. Allowed the media to solidify. The petri plates were then incubated for the predefined time and temperature as referenced already for bacterial and fungal cultures respectively. The plates were then investigated visually for the development of microbial growth. The MBC and MFC were stated as the minimum concentration of the compounds in aliquots showing no visual growth after incubation.

[13] = tested on: B. subtilis; assay: MIC by tube dilution method; assay type: cell-based; settings: 24 h at 37 °C
[14] = tested on: K. pneumonia; assay: Minimum bactericidal concentration (MBC); assay type: cell-based; settings: for MBC: Klebsiella pneumoniae
[15] = Staphylococcus aureus, read-out: MIC
[16] = Aspergillus niger, 168 h, read-out: MIC
[17] = Salmonella enterica, 24 h, read-out: MIC
[18] = Aspergillus fumigatus, 168 h, read-out: MIC
[19] = Escherichia coli, 24 h, read-out: MIC
[20] = Bacillus subtilis, read-out: MIC

Row | SMILES | MBC [1] [µg/mL] | MIC [2] [µg/mL] | MBC [3] [µg/mL] | MIC [4, 15] [µg/mL] | MBC [5] [µg/mL] | MFC [6] [µg/mL] | MIC [7, 16] [µg/mL] | MFC [8] [µg/mL] | melting point [°C] | MIC [9, 17] [µg/mL] | MIC [10, 18] [µg/mL] | MIC [11, 19] [µg/mL] | MBC ([12]; S. enterica, MBC) [µg/mL] | MIC [13, 20] [µg/mL] | MBC [14] [µg/mL] | also measured
1 | C/C(=N/c1ncccn1)c1ccc(/N=N\c2c[nH]c3ccccc23)cc1 [DS-17, (Z)-N-(1-(4-((Z)-(1H-Indol-3-yl)diazenyl)phenyl)ethylidene)pyrimidin-2-amine] | 15.6 (≈ 45.9 µM) | 7.81 (≈ 22.9 µM) | 62.5 (≈ 184 µM) | 62.5 (≈ 184 µM) | 62.5 (≈ 184 µM) | 125 (≈ 367 µM) | 62.5 (≈ 184 µM) | 125 (≈ 367 µM) | 275 to 280 | 62.5 (≈ 184 µM) | 31.2 (≈ 91.8 µM) | 3.9 (≈ 11.5 µM) | 62.5 (≈ 184 µM) | 125 (≈ 367 µM) | 15.6 (≈ 45.9 µM) | 
2 | CC(=O)NS(=O)(=O)c1ccc(/N=C(/C)c2ccc(/N=N\c3c[nH]c4ccc([N+](=O)[O-])cc34)cc2)cc1 [DS-15, N-((4-((Z)-(1-(4-((Z)-(5-Nitro-1H-indol-3-yl)diazenyl)phenyl)ethylidene)amino)phenyl)sulfonyl)acetamide] | 125 (≈ 248 µM) | 3.9 (≈ 7.73 µM) | 62.5 (≈ 124 µM) | 125 (≈ 248 µM) | 31.2 (≈ 61.9 µM) | 125 (≈ 248 µM) | 125 (≈ 248 µM) | 125 (≈ 248 µM) | 110 to 115 | 31.2 (≈ 61.9 µM) | 62.5 (≈ 124 µM) | 15.6 (≈ 31 µM) | 31.2 (≈ 61.9 µM) | 31.2 (≈ 61.9 µM) | 31.2 (≈ 61.9 µM) | 
3 | C/C(=N/c1ccc(S(=O)(=O)Nc2ccccn2)cc1)c1ccc(/N=N\c2c[nH]c3ccccc23)cc1 [DS-11, 4-((Z)-(1-(4-((Z)-(1H-Indol-3-yl)diazenyl)phenyl)ethylidene)amino)-N-(pyridin-2-yl)benzenesulfonamide] | 62.5 (≈ 126 µM) | 15.6 (≈ 31.6 µM) | 125 (≈ 253 µM) | 31.2 (≈ 63.2 µM) | 62.5 (≈ 126 µM) | 125 (≈ 253 µM) | 125 (≈ 253 µM) | 125 (≈ 253 µM) | 135 to 140 | 62.5 (≈ 126 µM) | 62.5 (≈ 126 µM) | 3.9 (≈ 7.89 µM) | 125 (≈ 253 µM) | 31.2 (≈ 63.2 µM) | 31.2 (≈ 63.2 µM) | 
4 | CO/N=C(\C(=O)N[C@@H]1C(=O)N2C(C(=O)O)=C(COC(C)=O)CS[C@H]12)c1csc(N)n1 [CFT, cefotaxime, reference compound] | 15.6 (≈ 34.3 µM) | 1.95 (≈ 4.28 µM) | 15.6 (≈ 34.3 µM) | 15.6 (≈ 34.3 µM) | 31.2 (≈ 68.6 µM) |  |  |  |  | 15.6 (≈ 34.3 µM) |  | 1.95 (≈ 4.28 µM) | 31.2 (≈ 68.6 µM) | 15.6 (≈ 34.3 µM) | 3.9 (≈ 8.56 µM) | 
5 | C/C(=N\Cc1ccco1)c1ccc(/N=N/c2c[nH]c3ccccc23)cc1 [DS-1, (E)-N-(2-Furylmethyl)-1-[4-[(E)-1H-indol-3-ylazo]phenyl]ethanimine] | 125 (≈ 365 µM) | 3.9 (≈ 11.4 µM) | 125 (≈ 365 µM) | 62.5 (≈ 183 µM) | 125 (≈ 365 µM) | 125 (≈ 365 µM) | 125 (≈ 365 µM) | 125 (≈ 365 µM) | 315 to 320 | 62.5 (≈ 183 µM) | 62.5 (≈ 183 µM) | 15.6 (≈ 45.6 µM) | 62.5 (≈ 183 µM) | 62.5 (≈ 183 µM) |  | 
6 | C/C(=N/c1ccc(Cl)cc1[N+](=O)[O-])c1ccc(/N=N\c2c[nH]c3ccccc23)cc1 [DS-13, (Z)-N-(1-(4-((Z)-(1H-Indol-3-yl)diazenyl)phenyl)ethylidene)-4-chloro-2-nitroaniline] | 3.9 to 7.81 (≈ 9.33 to 18.7 µM) | 3.9 (≈ 9.33 µM) | 125 (≈ 299 µM) | 62.5 (≈ 150 µM) | 62.5 (≈ 150 µM) | 125 (≈ 299 µM) | 62.5 (≈ 150 µM) | 125 (≈ 299 µM) |  | 62.5 (≈ 150 µM) | 31.2 (≈ 74.8 µM) | 7.81 (≈ 18.7 µM) |  | 62.5 (≈ 150 µM) | 15.6 (≈ 37.4 µM) | MBC [12]: 62.5 µg/mL (≈ 150 µM)
7 | C/C(=N/c1ccc(F)cc1)c1ccc(/N=N\c2c[nH]c3ccc([N+](=O)[O-])cc23)cc1 [DS-16, (Z)-4-Fluoro-N-(1-(4-((Z)-(5-nitro-1H-indol-3-yl)diazenyl)phenyl)ethylidene)aniline] | 62.5 (≈ 156 µM) | 7.81 (≈ 19.5 µM) | 125 (≈ 311 µM) | 62.5 (≈ 156 µM) | 125 (≈ 311 µM) | 125 (≈ 311 µM) | 62.5 (≈ 156 µM) | 125 (≈ 311 µM) | 150 to 152 | 62.5 (≈ 156 µM) | 31.2 (≈ 77.9 µM) | 15.6 (≈ 38.9 µM) | 62.5 (≈ 156 µM) | 31.2 (≈ 77.9 µM) | 31.2 (≈ 77.9 µM) | 
8 | OC(Cn1cncn1)(Cn1cncn1)c1ccc(F)cc1F [FLU, fluconazole, reference compound] |  |  |  |  |  | 125 (≈ 408 µM) | 31.2 (≈ 102 µM) | 125 (≈ 408 µM) |  |  | 7.81 (≈ 25.5 µM) |  |  |  |  | 
9 | C/C(=N/c1ccc(S(=O)(=O)Nc2ncccn2)cc1)c1ccc(/N=N\c2c[nH]c3ccccc23)cc1 [DS-19, 4-((Z)-(1-(4-((Z)-(1H-Indol-3-yl)diazenyl)phenyl)ethylidene)amino)-N-(pyrimidin-2-yl) benzenesulfonamide] |  |  |  |  |  |  |  |  |  |  |  |  |  |  |  | MBC/MFC [1]: 62.5 µg/mL (≈ 126 µM); MBC/MFC [3]: 125 µg/mL (≈ 252 µM); MIC [4]: 31.25 µg/mL (≈ 63.1 µM); MBC/MFC [5]: 31.25 µg/mL (≈ 63.1 µM); MBC/MFC [6]: 125 µg/mL (≈ 252 µM); MIC [7]: 31.25 µg/mL (≈ 63.1 µM); MBC/MFC [8]: 125 µg/mL (≈ 252 µM); MIC [9]: 62.5 µg/mL (≈ 126 µM); MIC [10]: 31.25 µg/mL (≈ 63.1 µM); MIC [11]: 7.81 µg/mL (≈ 15.8 µM); MIC [13]: 31.25 µg/mL (≈ 63.1 µM); MBC/MFC [14]: 15.62 µg/mL (≈ 31.5 µM)
10 | C/C(=N/c1nnc(-c2ccc([N+](=O)[O-])cc2)s1)c1ccc(/N=N\c2c[nH]c3ccc([N+](=O)[O-])cc23)cc1 [DS-5, (Z)-N-(1-(4-((Z)-(5-Nitro-1H-indol-3-yl)diazenyl)phenyl)ethylidene)-5-(4-nitrophenyl)-1,3,4-thiadiazol-2-amine] | 31.2 (≈ 61 µM) | 3.9 (≈ 7.61 µM) | 125 (≈ 244 µM) | 125 (≈ 244 µM) | 125 (≈ 244 µM) | 125 (≈ 244 µM) | 62.5 (≈ 122 µM) | 125 (≈ 244 µM) | 160 to 165 | 31.2 (≈ 61 µM) | 125 (≈ 244 µM) | 1.95 (≈ 3.8 µM) | 62.5 (≈ 122 µM) | 62.5 (≈ 122 µM) | 15.6 (≈ 30.5 µM) | 
11 | CCc1nnc(/N=C(/C)c2ccc(/N=N\c3c[nH]c4ccccc34)cc2)s1 [DS-7, (Z)-N-(1-(4-((Z)-(1H-Indol-3-yl)diazenyl)phenyl)ethylidene)-5-ethyl-1,3,4-thiadiazol-2-amine] | 31.2 (≈ 83.5 µM) | 3.9 (≈ 10.4 µM) | 125 (≈ 334 µM) | 62.5 (≈ 167 µM) | 125 (≈ 334 µM) | 125 (≈ 334 µM) | 62.5 (≈ 167 µM) | 125 (≈ 334 µM) | 145 to 150 | 31.2 (≈ 83.5 µM) | 62.5 (≈ 167 µM) | 7.81 (≈ 20.9 µM) |  | 125 (≈ 334 µM) | 16.2 (≈ 43.4 µM) | MBC [12]: 31.2 µg/mL (≈ 83.5 µM)
12 | O=C(O)c1cn(C2CC2)c2cc(N3CCNCC3)c(F)cc2c1=O [CPR, ciprofloxacin, reference compound] | 31.2 (≈ 94.3 µM) | 7.81 (≈ 23.6 µM) | 31.2 (≈ 94.3 µM) | 1.95 (≈ 5.89 µM) | 62.5 (≈ 189 µM) |  |  |  |  | 15.6 (≈ 47.1 µM) |  | 3.9 (≈ 11.8 µM) | 31.2 (≈ 94.3 µM) | 7.81 (≈ 23.6 µM) | 7.81 (≈ 23.6 µM) | 
